This note sets out measurements from ChEMBL document CHEMBL4020755, “Design, synthesis, and biological evaluation of deuterated apalutamide with improved pharmacokinetic profiles” (Bioorg Med Chem Lett, 2017).

For orientation: Tmax means the time at which the peak concentration occurs. In general, Cmax refers to the peak of the concentration-time curve. What is called AUC(0-t) is the area under the concentration-time curve up to a stated or last time point. Read a high AUC(0-t) as more exposure. The term half-life denotes the time in which the quantity being followed falls by half. As a reminder, the AUC(0-inf) is the area under the concentration-time curve extrapolated to infinity. As usually defined, the MRT is a mean duration of stay, worked out from the concentration-time curve.

Format in all cases: ADME, organism-based
What all share (settings): in vivo, po

Data set [1] is described as follows: Tmax in Balb/c mouse at 10 mg/kg administered orally measured up to 24 hrs by LC-MS/MS analysis.
Data set [2] in a line: Cmax in Balb/c mouse at 10 mg/kg administered orally measured up to 24 hrs by LC-MS/MS analysis. On the set-up: dose 10 mg/kg, route oral.
A short description of data set [3]: AUC (0 to 24 hrs) in Balb/c mouse at 10 mg/kg administered orally measured up to 24 hrs by LC-MS/MS analysis. On the set-up: dose 10 mg/kg, time < 24 hr, route oral.
Data set [4] is described as follows: Half life in Balb/c mouse at 10 mg/kg administered orally measured up to 24 hrs by LC-MS/MS analysis.
Data set [5] in a line: Cmax in Sprague-Dawley rat at 10 mg/kg administered orally measured up to 24 hrs by LC-MS/MS analysis. Further details: dose 10 mg/kg, route oral.
Data set [6] in a line: AUC (0 to infinity) in Sprague-Dawley rat at 10 mg/kg administered orally measured up to 24 hrs by LC-MS/MS analysis. On the set-up: dose 10 mg/kg, route oral, time infinity.
A short description of data set [7]: Mean residence time in Sprague-Dawley rat 10 mg/kg administered orally measured up to 24 hrs by LC-MS/MS analysis.
Data set [8] in a line: Half life in Sprague-Dawley rat 10 mg/kg administered orally measured up to 24 hrs by LC-MS/MS analysis.

For `CNC(=O)c1ccc(N2C(=S)N(c3cnc(C#N)c(C(F)(F)F)c3)C(=O)C23CCC3)cc1F` [APALUTAMIDE], the Tmax in data set [1] turned out to be 6 h. The Cmax is 3320 ng/mL in data set [2] and 946 ng/mL in data set [5]. Moreover, in data set [3], the AUC(0-t) at 24 h is 61600 ng·h/mL. In addition, the half-life in data set [4] is 5.9 h; in data set [8], 7.4 h. The molecule also returned an AUC(0-inf) in data set [6] of 14800 ng·h/mL. Moreover, in data set [7], the MRT was 10.7 h.

On to `[2H]C([2H])([2H])NC(=O)c1ccc(N2C(=S)N(c3cnc(C#N)c(C(F)(F)F)c3)C(=O)C23CCC3)cc1F`, for which the Tmax in data set [1] turned out to be 4 h. In addition, the Cmax in data set [2] was found to be 4480 ng/mL; in data set [5], 1700 ng/mL. In data set [3], the AUC(0-t) at 24 h is 87800 ng·h/mL. Further, the half-life was 32.3 h in data set [4] and 8.9 h in data set [8]. The molecule also returned an AUC(0-inf) in data set [6] of 28700 ng·h/mL. Besides, the MRT in data set [7] amounted to 13 h.

In the case of `[2H]C1([2H])CC([2H])([2H])C12C(=O)N(c1cnc(C#N)c(C(F)(F)F)c1)C(=S)N2c1ccc(C(=O)NC)c(F)c1`, the Tmax in data set [1] worked out at 6 h. This molecule also showed a Cmax in data set [2] of 2170 ng/mL. The same molecule came in with an AUC(0-t) at 24 h in data set [3] of 41100 ng·h/mL. In data set [4], this molecule gave a half-life of 32.3 h.

In the case of `[2H]c1cc(C(=O)NC([2H])([2H])[2H])c(F)c([2H])c1N1C(=S)N(c2cnc(C#N)c(C(F)(F)F)c2)C(=O)C12CCC2`, the Tmax in data set [1] was 4 h. Moreover, in data set [2], the Cmax came out at 3940 ng/mL. In addition, the AUC(0-t) at 24 h in data set [3] was found to be 80600 ng·h/mL. The molecule further had a half-life in data set [4] of 54.9 h.

For `[2H]c1cc(C(=O)NC)c(F)c([2H])c1N1C(=S)N(c2cnc(C#N)c(C(F)(F)F)c2)C(=O)C12CCC2`, the Tmax in data set [1] came out at 6 h. In data set [2], the highest level (Cmax) was 3480 ng/mL. The same molecule had an AUC(0-t) at 24 h in data set [3] of 63800 ng·h/mL. Besides, the half-life in data set [4] is 6.6 h.
